# Reference: US20110014644A1, “METHODS FOR PREDICTING A CANCER PATIENT'S RESPONSE TO ANTIFOLATE CHEMOTHERAPY” (Precision Therapeutics, Inc., priority 2009, published 2011)
# Experiments:
# [1] = tested on: primary cultures of NSCLC specimens; assay: ChemoFx live cell chemoresponse assay on primary cultures of patient lung cancer specimens; assay type: cell-based, human; conditions: 65 primary cultures, single agent, 72 hours
# Procedure: The ChemoFx™ live cell chemoresponse assay was performed on 65 patient specimens and the cell line A549. The cells were treated with a 10-dose range of pemetrexed for 72 hours before DAPI-nuclear staining and counting. AUC (Area Under Curve) values were calculated and additional statistical analysis was performed on the resulting dose-response curves.
# The area under the dose-response curve (AUC) represents the survival fraction of cells in the presence of drug at each of the 10 increasing dose concentrations. There can be certain circumstances when dose-response curves of differing shapes share similar AUCs. Therefore, as a better reflection of sensitivity to drug treatment, an adjusted area under the curve (aAUC) was calculated according to the following formulas. First, local slope (Sd) at each dose point was calculated based on Sd=(CId-1−CId)/unit of dose. Second, slope weight (Wd) at each dose point was calculated based on Wd=1−Sd. Finally, aAUC was computed based on aAUC=Σ Wd CId, where d=1 . . . 10. Mi Z, et al. (2008) Anticancer Res 28: 1733-1740.
# Adjusted areas under the curve (aAUC) were calculated for each dose-response curve. The assay results were classified as responsive (R; assay score≦5.34648.0), intermediate responsive (IR; assay score 5.3465-6.5372) or non-responsive (NR; assay score≧6.5373).
# [2] = tested on: A549 cells; assay: ChemoFx live cell chemoresponse assay on A549 (wash-before-treatment, folic acid supplementation); assay type: cell-based, human
# Procedure: The ChemoFx™ live cell chemoresponse assay was performed on 65 patient specimens and the cell line A549. The cells were treated with a 10-dose range of pemetrexed for 72 hours before DAPI-nuclear staining and counting. AUC (Area Under Curve) values were calculated and additional statistical analysis was performed on the resulting dose-response curves. Folic Acid supplementation experiments were conducted. Pure folic acid was purchased from Sigma Aldrich, filtered, and prepared in a 100× concentration using RPMI media. The concentrate was added to RPMI media so that the final concentration of folic acid ranged between 1.5 mg/L and 500 mg/L. The cell line A549 was plated and treated according to the ChemoFx™ assay in the RPMI media containing increasing concentrations of folic acid. A control was also plated and treated at the same time. In order to determine whether or not removal of excess folic acid from growth media affected the outcome of the chemoresponse assay, a Wash Before Treatment (WBT) step was included. Briefly, A549 cells were plated in 5% BEGM growth media and were cultured to the desired confluence. The growth media was then aspirated and the cells washed with 70 μL of PBS. After removal of the PBS, 70 μL of 5% RPMI+EGF (EGF concentration of 10 ng/mL) treatment media was added to the each treatment well. Following the addition of the treatment media, 30 μL of the treatment media was removed leaving a total volume of 40 μL of treatment media per well. Pemetrexed was then prepared using serial dilutions in the treatment media and was applied to the treatment wells. All aspirations and additions of media and wash solutions was performed by an automated liquid handler to avoid harsh pipetting that might dissociate/disrupt cells.
# [3] = tested on: non-small cell lung carcinoma (NSCLC); conditions: second-line treatment in the clinical setting, NSCLC patients (Hanna 2004); cited from earlier work
smiles,measurement,setting,value
"Nc1nc2[nH]cc(CCc3ccc(C(=O)N[C@@H](CCC(=O)O)C(=O)O)cc3)c2c(=O)[nH]1 [pemetrexed, Pemetrexed]",share of primary cultures with intermediate response (IR),"[1]; 2.24 nM to 586 μM, aAUC assay score 5.3465-6.5372",9.2%
same,share of primary cultures non-responsive (NR),"[1]; 2.24 nM to 586 μM, aAUC assay score ≧6.5373",84.6%
same,"share of primary cultures that responded (responsive, R)","[1]; ten serial dilutions 2.24 nM to 586 μM, aAUC assay score ≦5.34648.0",6.2%
same,effect of folic acid on observed activity,"[2]; A549, RPMI media with folic acid 1.5 mg/L to 500 mg/L, FIG. 3",could be reversed with folic acid treatment
same,effect of wash-before-treatment (WBT) protocol on in vitro response,"[2]; A549, with WBT, 5% BEGM to 5% RPMI+EGF, FIG. 1",significantly improved the in vitro response
same,response curve without WBT,"[2]; A549, without WBT (5% BEGM control)",a typical ChemoFx™ response curve was not obtained
same,sensitivity of A549 to treatment,"[2]; A549 cultured in 5% BEGM, treated in 5% RPMI+EGF, FIG. 1",good positive control for sensitivity
same,objective response rate (overall population response),[3],9.1%
